# According to patent US6346544B2, “Desmethyl tocopherols for protecting cardiovascular tissue” (Oklahoma Medical Research Foundation, priority 2000, dated 2002):
# Key:
# [1] = test system: αKGDH; experiment: αKGDH protection against SIN-1 nitrative stress in isolated mitochondria in vitro; type: biochemical, rat; settings: 400 μM SIN-1, one hour, rat brain mitochondria
# Description: FIG. 3 is a graph showing rat brain mitochondria exposed to 0.4 mM SIN-1 for 1 H after addition of tocopherol. (•)α-tocopherol; (▪)γ-tocopherol. The scale bars labeled [α]norm and [Y]norm indicate the normal endogenous quantities of α-tocopherol and γ-tocopherol, respectively, in human brain.
# αKGDH is a rate-limiting enzyme of mitochondrial energy production which is diminished in conditions of vascular ischemia (53-58); augmentation of the enzyme with α-ketoglutarate has been found beneficial and α-ketoglutarate is now included as a component in cardioplegia fluid to improve recovery after heart surgery (59). We undertook to determine whether γT protects αKGDH against nitrative stress in vitro. Mitochondria were isolated from adult rat brain then sonicated briefly in the presence of either αT or γT, or an ethanol vehicle. Mitochondria were then exposed to SIN-1, which generates NO and superoxide simultaneously at a known rate (7). Combination of NO and superoxide yields ONOO^−. in situ (discussed above).
# [2] = plasma concentrations of tocopherols and 5-NO2-γ-tocopherol in volunteers; type: in vivo, human; settings: mean ± SEM
# Description: Smoking is recognized as a major contributing factor to heart disease and γ-T reportedly decreases more than α-T in smokers. Hypertension is also a strong risk factor for heart disease. […] Seven subjects indicated a chronic hypertensive condition. As outlined in Table I, γ-tocopherol tended to decrease in hypertensive subjects while nitration products tended to increase in both smokers and hypertensive subjects. This was the trend regardless of whether the tocopherol concentrations were normalized to plasma triglycerides (Table I).
compound,measurement,setting,value
"Nc1c[n+](N2CCOCC2)no1 [SIN-1, reference compound]",diminution of αKGDH activity,[1],approximately 50%
"Cc1c(C)c2c(c([N+](=O)[O-])c1O)CCC(C)(CCCC(C)CCCC(C)CCCC(C)C)O2 (stereo not shown) [5-NO2-γ-tocopherol, 5-nitro-γ-tocopherol]",plasma concentration,"[2]; hypertensives, N = 7",20.0 ± 3.7 ng/mL plasma
same,plasma concentration normalized to triglyceride,"[2]; hypertensives, N = 7",34.9 ± 10.9 ng/mg triglyceride
same,plasma concentration,"[2]; population, N = 54",11.3 ± 1.6 ng/mL plasma
same,plasma concentration normalized to triglyceride,"[2]; population, N = 54",14.0 ± 2.5 ng/mg triglyceride
same,plasma concentration,"[2]; smokers, N = 7",20.0 ± 3.3 ng/mL plasma
same,plasma concentration normalized to triglyceride,"[2]; smokers, N = 7",23.5 ± 7.2 ng/mg triglyceride
